Earlier results as cited in US12655468B2, “Genetic predictors of a response to treatment with CRHR1 antagonists” (HMNC Holding GmbH, priority 2015, dated 2026).

Tested on: mice overexpressing CRH in the forebrain

Which “effect on increased REM sleep” value does the source give for `COCC(COC)Nc1nc(C)nc2c(-c3ccc(Cl)cc3Cl)c(C)nn12` [DMP696] here?
The value was “could reverse the REM enhancement”.
